Laboratory results published in patent US4419517A, “4a-Aryl-trans-decahydroisoquinolines” (E. I. Du Pont de Nemours & Co., priority 1975, dated 1983).

What was measured:
Straub tail = Straub tail in mice; assay type: in vivo; conditions: dose not stated
Source text: Included in this group are the compounds of examples 9, 10, 16 and 18.

[1] = test system: phenylquinone-induced stretching or writhing syndrome; test: Phenylquinone writhing test, oral, female white mice (modified from Siegmund et al.); assay type: in vivo; conditions: for analgesic activity of the optical isomers, in words: dextro and laevo forms; for ED50 (optical isomers, phenylquinone writhing test described in Example A): optical isomers of N-methyl-4a-phenyl-trans-decahydroisoquinoline, mice, test as in Example A; for ED50: Mus musculus, po, suspended in 1% Methocel, fasted female white mice, phenylquinone i.p. 23 or 30 min later, observed 10 min, moving average method, read-out: oral ED50 (effective analgesic dose for 50% of the mice)
Procedure: In a standard mouse test modified from Siegmund et al. [Proc. Soc. Exp. Biol. Med. 95, 729 (1957)], a test compound suspended in 1% Methocel® was given orally to fasted (17-21 hours) female white mice, 5-20 animals per double blind test. Aqueous (0.01%) phenyl-p-benzoquinone (phenylquinone) was injected intraperitoneally at 23 or 30 minutes later using 0.25 ml per mouse. […] The effective analgesic dose for 50% of the mice (ED50) was calculated by the moving average method of Weil [Biometrics 8, 249 (1952)].The oral ED50 dosages of several compounds of the invention are: […]

[2] = J. Am. Chem. Soc. 72, 712 (1950); cited from earlier work

Row | SMILES | Straub tail in mice (evidence for appearing to be nonaddicting) (Straub tail) | ED50 [1] [mg/kg] | other results
1 | COc1cccc(C23CCN(CC4CC4)CC2CCC(C)C3)c1 (stereo not drawn) [Example 18, N-cyclopropylmethyl-4a-(m-methoxyphenyl)-6-methyl-trans-decahydroisoquinoline] | do not produce the Straub tail | – | –
2 | CN1CC[C@@]2(c3ccccc3)CCCC[C@@H]2C1 (relative stereo) [Laevo (Ex. 2H-1), laevo-N-Methyl-4a-phenyl-trans-decahydroisoquinoline] | – | – | analgesic activity of the optical isomers, in words ([1]; phenylquinone writhing test): active; ED50 (optical isomers, phenylquinone writhing test described in Example A) [1]: 23.0 mg/kg
3 | CN1CC[C@]2(c3ccccc3)CCCC[C@@H]2C1 (relative stereo) [N-methyl-4a-phenyl-cis-decahydroisoquinoline] | – | – | analgesic activity [2]: low analgesic activity
4 | CN1CC[C@@]2(c3ccccc3)CCCC[C@@H]2C1 (relative stereo) [Dextro (Ex. 2H-2), dextro-N-Methyl-4a-phenyl-trans-decahydroisoquinoline] | – | – | analgesic activity of the optical isomers, in words ([1]; phenylquinone writhing test): active; analgesic effectiveness of dextro form compared with laevo form ([1]; dextro vs laevo form, phenylquinone writhing test): significantly more effective than the laevo form; ED50 (optical isomers, phenylquinone writhing test described in Example A) [1]: 3.5 mg/kg
5 | Oc1cccc([C@@]23CCCC[C@H]2CN(CC2CC2)CC3)c1 (relative stereo) [Example 10, N-Cyclopropylmethyl-4a-(m-hydroxyphenyl)-trans-decahydroisoquinoline] | do not produce the Straub tail | – | –
6 | CCCCCCN1CC[C@]2(c3cccc(O)c3)CCCC[C@H]2C1 (relative stereo) [Example 16, N-(n-Hexyl)-4a-(m-hydroxyphenyl)-trans-decahydroisoquinoline] | do not produce the Straub tail | – | –
7 | COc1cccc([C@@]23CCCC[C@H]2CN(CC2CC2)CC3)c1 (relative stereo) [Example 9, N-Cyclopropylmethyl-4a-(m-methoxyphenyl)-trans-decahydroisoquinoline] | do not produce the Straub tail | 8 | –
8 | CN1CC[C@]2(c3cccc(O)c3)CCCC[C@H]2C1 (relative stereo) [Example 4, N-methyl-4a-(m-hydroxyphenyl)-trans-decahydroisoquinoline] | – | 2.3 | –
9 | COc1cccc([C@@]23CCCC[C@H]2CN(C)CC3)c1 (relative stereo) [Example 3-E, N-Methyl-4a-(m-methoxyphenyl)-trans-decahydroisoquinoline] | – | 3 | –
